Source: patent US9789082B2, “Somatostatin receptor subtype 4 (SSTR4) agonists” (Centrexion Therapeutics Corporation, priority 2013, dated 2017)
pEC50: −log10 of the molar value.

These compounds were tested against human Somatostatin 4 receptor (SSTR4) (Homo sapiens (Human), UniProt P31391) (assay: cAMP assay with human somatostatin 4 receptor (hSSTR4 expressing H4 cells)). Settings: cAMP assay, read-out: SSTR4 agonism EC50.
Assay type: cell-based
Procedure: Camp Assay Method Description for cAMP Assay with Human Somatostatin 4 Receptor
The activation of the SSTR4 receptor (Gi coupled) causes an inhibition of intracellular cAMP after stimulation with Forskolin, which can be quantifiable by use of a suitable assay Kit and an adequate plate reader. This technique is used to characterize pharmacological effects of the SSTR4 receptor agonists by use of hSSTR4 expressing H4 cells.
Compounds are dissolved and diluted in DMSO. The final test solution contains 1% DMSO. […] Cells are centrifuged and suspended in assay buffer (incl. 1:100 diluted Alexa antibody).
For the assay 5 μl of a cell suspension (approximately 5000 cells/well)—incl. Alexa antibody (diluted 1:100) are added into a 384 well MTP microtitre plate excepting one row or column (depending on the plate layout), which is reserved for the standard curve. Then 2 μl of compound sample is added as concentration response curve (e.g. 1e-5 M to 6e-10 M), usually in triplicates. Each assay contains incubations with vehicle controls instead of compound as controls for non-inhibited cAMP generation (100% CTL; ‘high values’) and incubations with 1 μM Somatosatin as controls for full inhibition and background (0% CTL; […]). […] Then the plates are shaken briefly and incubated for 60 min at room temperature. After 60 min 10 μl of the detection mix is added into all wells followed by an additional incubation period of 1 h. The plates are read in a suitable plate reader.
From this ratio, cAMP concentrations are calculated from standard curve and the EC50 is estimated by least square curve fit program.
The EC50 values were obtained with the aid of the above described cAMP ASSAY.

human Somatostatin 4 receptor (SSTR4), sequence (P31391 whole entry): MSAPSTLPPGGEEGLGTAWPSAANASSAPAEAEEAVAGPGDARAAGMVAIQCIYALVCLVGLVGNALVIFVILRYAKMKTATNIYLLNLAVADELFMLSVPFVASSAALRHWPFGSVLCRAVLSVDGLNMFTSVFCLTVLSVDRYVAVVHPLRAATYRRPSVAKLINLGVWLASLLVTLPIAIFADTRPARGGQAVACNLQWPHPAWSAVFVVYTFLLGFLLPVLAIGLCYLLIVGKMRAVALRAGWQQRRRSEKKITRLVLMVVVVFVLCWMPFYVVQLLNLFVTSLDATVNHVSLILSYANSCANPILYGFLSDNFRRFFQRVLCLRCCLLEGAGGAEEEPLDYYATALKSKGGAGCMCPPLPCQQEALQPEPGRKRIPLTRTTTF

Structure (SMILES) | pEC50
CC(NC(=O)[C@H]1[C@@H]2CNC[C@@H]21)c1nn(C)c2ccccc12 (single isomer, unassigned) [Example 112] | 6.93
CC(NC(=O)[C@H]1[C@@H]2CNC[C@@H]21)c1nn(C)c2c(Cl)cccc12 (single isomer, unassigned) [Example 115] | 7.67
Cc1cccc2c(C(C)NC(=O)[C@H]3[C@@H]4CNC[C@@H]43)nn(C)c12 (single isomer, unassigned) [Example 118] | 7.41
Cc1nc(C(C)NC(=O)[C@H]2[C@@H]3CNC[C@@H]32)c2ccccc2n1 (single isomer, unassigned) [Example 163] | 6.47
Cc1nc(C(C)NC(=O)[C@H]2[C@@H]3CNC[C@@H]32)c2ccccc2n1 (single isomer, unassigned) [Example 164] | 5.18
Cc1nc(C(C)NC(=O)[C@H]2[C@@H]3CNC[C@@H]32)c2cccc(C)c2n1 (single isomer, unassigned) [Example 165] | 7.05
Cc1nc(C(C)NC(=O)[C@H]2[C@@H]3CNC[C@@H]32)c2cccc(C)c2n1 (single isomer, unassigned) [Example 166] | 5.85
CC(C)(NC(=O)[C@H]1[C@@H]2CNC[C@@H]21)C1COc2ccccc21 (single isomer, unassigned) [Example 174] | 7.00
CC(C)(NC(=O)[C@H]1[C@@H]2CNC[C@@H]21)C1COc2ccccc21 (single isomer, unassigned) [Example 175] | 6.00
CC(C)(NC(=O)[C@H]1[C@@H]2CNC[C@@H]21)C1CCOc2ccccc21 (single isomer, unassigned) [Example 179] | 7.99
CC(C)(NC(=O)[C@H]1[C@@H]2CNC[C@@H]21)C1CCOc2ccccc21 (single isomer, unassigned) [Example 180] | 6.40
Cc1cc(I)ccc1OCC1(NC(=O)[C@H]2[C@@H]3CNC[C@@H]32)CC1 [Example 1] | 6.62
CC(C)(NC(=O)[C@H]1[C@@H]2CNC[C@@H]21)c1ccccc1 [Example 3] | 6.75
CC(C)(CCc1ccccc1)NC(=O)[C@H]1[C@@H]2CNC[C@@H]21 [Example 4] | 6.50
CC(C)(Cc1cccc2ccccc12)NC(=O)[C@H]1[C@@H]2CNC[C@@H]21 [Example 5] | 7.58
Cc1ccccc1CC(C)(C)NC(=O)[C@H]1[C@@H]2CNC[C@@H]21 [Example 6] | 7.22
CC(C)(NC(=O)[C@H]1[C@@H]2CNC[C@@H]21)C1CCCCC1 [Example 7] | 6.36
O=C(NC1(c2ccccc2)CCCCC1)[C@H]1[C@@H]2CNC[C@@H]21 [Example 9] | 6.27
Cc1cc(Br)ccc1OCC(C)(C)NC(=O)[C@H]1[C@@H]2CNC[C@@H]21 [Example 14] | 8.14
Cc1cc(C(F)(F)F)ccc1OCC(C)(C)NC(=O)[C@H]1[C@@H]2CNC[C@@H]21 [Example 19] | 6.85
CC(C)(NC(=O)[C@H]1[C@@H]2CNC[C@@H]21)c1cc2ccccc2cn1 [Example 26] | 7.33
Cc1csc(C(C)(C)NC(=O)[C@H]2[C@@H]3CNC[C@@H]32)n1 [Example 27] | 6.55

Structure (SMILES) | pEC50
CC(C)(CCc1ncccc1C(F)(F)F)NC(=O)[C@H]1[C@@H]2CNC[C@@H]21 [Example 29] | 7.22
Cc1cccnc1CCC(C)(C)NC(=O)[C@H]1[C@@H]2CNC[C@@H]21 [Example 30] | 6.69
CC(C)(NC(=O)[C@H]1[C@@H]2CNC[C@@H]21)c1ccc2ccccc2n1 [Example 34] | 7.39
Cn1nc(C(C)(C)NC(=O)[C@H]2[C@@H]3CNC[C@@H]32)c2ncccc21 [Example 35] | 6.43
CC(C)(COc1ccncc1C(F)(F)F)NC(=O)[C@H]1[C@@H]2CNC[C@@H]21 [Example 36] | 7.66
Cc1nccnc1OCC(C)(C)NC(=O)[C@H]1[C@@H]2CNC[C@@H]21 [Example 37] | 6.79
CC(C)(COc1ccccc1F)NC(=O)[C@H]1[C@@H]2CNC[C@@H]21 [Example 41] | 6.71
CC(C)(NC(=O)[C@H]1[C@@H]2CNC[C@@H]21)c1cnc2cccnn12 [Example 46] | 6.62
CC(C)(NC(=O)[C@H]1[C@@H]2CNC[C@@H]21)c1nn(Cc2ccccc2)c2ccccc12 [Example 50] | 8.08
CC(C)(COc1ccnc2ccccc12)NC(=O)[C@H]1[C@@H]2CNC[C@@H]21 [Example 54] | 7.18
CC(C)(COc1cncc2ccccc12)NC(=O)[C@H]1[C@@H]2CNC[C@@H]21 [Example 55] | 7.51
CC(C)(COc1cccn2ccnc12)NC(=O)[C@H]1[C@@H]2CNC[C@@H]21 [Example 61] | 5.96
CC(C)(COc1noc2ccccc12)NC(=O)[C@H]1[C@@H]2CNC[C@@H]21 [Example 62] | 6.69
Cc1cncnc1OCC(C)(C)NC(=O)[C@H]1[C@@H]2CNC[C@@H]21 [Example 66] | 6.85
CC(C)(NC(=O)[C@H]1[C@@H]2CNC[C@@H]21)c1ncc2ccncn12 [Example 69] | 6.13
Cc1ccccc1OCC(C)(C)NC(=O)[C@H]1[C@@H]2CN(C(C)C)C[C@@H]21 [Example 72] | 6.44
Cn1nc(C(C)(C)NC(=O)[C@H]2[C@@H]3CNC[C@@H]32)c2cc(F)ccc21 [Example 73] | 7.92
CC(C)(NC(=O)[C@H]1[C@@H]2CNC[C@@H]21)c1c(Cl)nc2sccn12 [Example 81] | 6.84
CC(C)(NC(=O)[C@H]1[C@@H]2CNC[C@@H]21)c1cn2ccccc2n1 [Example 84] | 6.08
CC(C)(NC(=O)[C@H]1[C@@H]2CNC[C@@H]21)c1ccn2ccnc2c1 [Example 85] | 6.84
CC(C)(NC(=O)[C@H]1[C@@H]2CNC[C@@H]21)c1ccc2nccn2c1 [Example 86] | 7.03
CC(C)(NC(=O)[C@H]1[C@@H]2CNC[C@@H]21)c1nn(CC(F)(F)F)c2ccccc12 [Example 96] | 8.04

Structure (SMILES) | pEC50
CC(C)(NC(=O)[C@H]1[C@@H]2CNC[C@@H]21)c1nn(CC2CC2)c2ccccc12 [Example 97] | 7.91
CC(C)n1nc(C(C)(C)NC(=O)[C@H]2[C@@H]3CNC[C@@H]32)c2ccccc21 [Example 98] | 7.70
CC(C)(NC(=O)[C@H]1[C@@H]2CNC[C@@H]21)c1nn(C2CCOCC2)c2ccccc12 [Example 99] | 6.99
Cc1cccc2c(C(C)NC(=O)[C@H]3[C@@H]4CNC[C@@H]43)nn(C)c12 (stereo partly drawn) [Example 117] | 8.21
CC(C)(NC(=O)[C@H]1[C@@H]2CNC[C@@H]21)c1ncc2ccc(C(F)(F)F)cn12 [Example 121] | 7.21
CC(C)(NC(=O)[C@H]1[C@@H]2CNC[C@@H]21)c1ncc2cc(C(F)(F)F)ccn12 [Example 122] | 5.87
CC(C)(NC(=O)[C@H]1[C@@H]2CNC[C@@H]21)c1nc(Br)c2ccccn12 [Example 123] | 8.82
CC(C)(NC(=O)[C@H]1[C@@H]2CNC[C@@H]21)c1ncc2c(C(F)(F)F)cccn12 [Example 124] | 7.81
CC(C)(NC(=O)[C@H]1[C@@H]2CNC[C@@H]21)c1nc(C2=CCOCC2)c2ccccn12 [Example 125] | 7.01
CC(C)(NC(=O)[C@H]1[C@@H]2CNC[C@@H]21)c1nc(C(F)(F)F)c2c(F)cccn12 [Example 127] | 7.50
CC(C)(NC(=O)[C@H]1[C@@H]2CNC[C@@H]21)c1ncc2cnccn12 [Example 131] | 6.32
CC(C)(NC(=O)[C@H]1[C@@H]2CNC[C@@H]21)c1nc(C#N)c2ccccn12 [Example 132] | 7.14
CC(C)(NC(=O)[C@H]1[C@@H]2CNC[C@@H]21)c1ncc2cccc(F)n12 [Example 135] | 8.12
CC(C)(NC(=O)[C@H]1[C@@H]2CNC[C@@H]21)c1ncc2ccc(F)cn12 [Example 136] | 8.19
Cc1cc2c(C)nccc2c(C(C)(C)NC(=O)[C@H]2[C@@H]3CNC[C@@H]32)n1 [Example 144] | 7.32
Cc1nc2ccccn2c1C(C)(C)NC(=O)[C@H]1[C@@H]2CNC[C@@H]21 [Example 147] | 7.88
CC(C)(NC(=O)[C@H]1[C@@H]2CNC[C@@H]21)c1ncc2c(OC(F)(F)F)cccn12 [Example 152] | 7.58
CC(C)(NC(=O)[C@H]1[C@@H]2CNC[C@@H]21)c1ncnc2c(F)cccc12 [Example 154] | 8.12
COc1ccn2c(C(C)(C)NC(=O)[C@H]3[C@@H]4CNC[C@@H]43)nc(C)c2c1 [Example 155] | 7.02
Cc1nc(C(C)(C)NC(=O)[C@H]2[C@@H]3CNC[C@@H]32)c2cccc(F)c2n1 [Example 157] | 7.43
Cc1cccn2c([C@@H](C)NC(=O)[C@H]3[C@@H]4CNC[C@@H]43)ncc12 [Example 160] | 7.37
Cc1nc(C(C)NC(=O)[C@H]2[C@@H]3CNC[C@@H]32)c2ccccc2n1 (stereo partly drawn) [Example 161] | 6.12
